Assays:
ZR-75-1 cells = test: Inhibition of cell proliferation (GI50) and cell death (LC50), ZR-75-1; assay type: cell-based; conditions: ZR-75-1, 48 h; read-out: GI50 (dose for 50% inhibition of cell proliferation)
Procedure: (§1) T47D, ZR-75-1, PC-3, human prostate cancer cell line DU-145, human non-small cell lung cancer cell line A-549, human small cell lung cancer cell line SHP-77, HL-60 and MRC-5 cells were grown and harvested as in Example 90. […] The samples were mixed by agitation and incubated at 37° C. for 2-4 h in a 5% CO2-95% humidity incubator. […] This determines the possible background absorbance of the test compounds. No absorbance for gambogic acid or its analogs or derivatives was found at 490 nm. After the 2-4 h incubation, the samples were read for absorbance as above (ATest).
(§2) Baseline for GI50 (dose for 50% inhibition of cell proliferation) and LC50 (dose for 50% cell death) of initial cell numbers was determined by adding an aliquot of 90 μl of cells or 90 μl of media, respectively, to wells of a 96-well microtiter plate containing 10 μl of a 10% DMSO in RPMI-1640 media solution. […] The samples were mixed by agitation and incubated at 37° C. for 2-4 h in a 5% CO2-95% humidity incubator. Absorbance was read as above, (AT=0) defining absorbance for initial cell number used as baseline in GI50 determinations and (Amin) defining absorbance for media alone used as baseline in LC50 determinations.
(§3) GI50 (dose for 50% inhibition of cell proliferation)
(§4) LC50 (dose for 50% cell death)
(§5) 50=100×[(ATest−Amin)/(AT=0−Amin)]

[1] = tested on: human non-small cell lung cancer cell line A-549; test: Inhibition of cell proliferation (GI50) and cell death (LC50), A-549; assay type: cell-based; conditions: A-549, 48 h; read-out: GI50 (dose for 50% inhibition of cell proliferation)
Procedure: as §1, §2, §3, §4, §5

HL-60 cells = test: Inhibition of cell proliferation (GI50) and cell death (LC50), HL-60; assay type: cell-based; conditions: HL-60, 48 h
Procedure: as §1, §2, §3, §4, §5

MRC-5 cells = test: Inhibition of cell proliferation (GI50) and cell death (LC50), MRC-5; assay type: cell-based; conditions: MRC-5, 48 h
Procedure: as §1, §2, §3, §4, §5

[2] = tested on: caspase activity, T47D cells; test: Caspase induction and its inhibition by caspase inhibitor (Example 97), T47D; assay type: cell-based, human; design: key to Inhibition of caspase activity by Inhibitor: The caspase activity detected was inhibited by the caspase inhibitor (+)
Procedure: (§6) T47D, ZR-75, PC3, SHP-77 and A-549 cells were maintained and harvested as described in Example 90. Cells were added to 96-well plates as described in Example 90. The cells were treated with 10 μM gambogic acid, in the presence and in the absence of 10 μM caspase inhibitor cbz-Val-Asp-fmk (Cytovia, Inc.; WO99/18781). The plate was incubated up to 24 h at 37° C in a 5% CO2-95% humidity incubator. Caspase activity was determined by addition of a fluorogenic substrate as described in Example 90.
(§7) Gambogic acid induced caspase activity in a ratio of greater than 2.5 (+) above untreated cell levels in all the tested cancer cell lines (Table IV). The caspase activity detected was inhibited by the caspase inhibitor (+), confirming that the fluorescent signal was due to caspase activity.

[3] = tested on: caspase activity, SHP-77 cells; test: Caspase induction and its inhibition by caspase inhibitor (Example 97), SHP-77; assay type: cell-based, human; design: key to Inhibition of caspase activity by Inhibitor: The caspase activity detected was inhibited by the caspase inhibitor (+)
Procedure: as §6, §7

[4] = tested on: caspase activity, A-549 cells; test: Caspase induction and its inhibition by caspase inhibitor (Example 97), A-549; assay type: cell-based, human; design: key to Inhibition of caspase activity by Inhibitor: The caspase activity detected was inhibited by the caspase inhibitor (+)
Procedure: as §6, §7

T47D cells = test: Morphological change of T47D cells (phase contrast); assay type: cell-based, human; conditions: 2.5 μM
Procedure: In addition, apoptotic adherent cells in culture lose their ability to remain attached to the culture dish. The ability of gambogic acid to trigger these morphological changes in T47D cells was investigated.
60 mm culture dishes were seeded with 750,000 T47D cells and the cultures were incubated under normal growth conditions (complete medium with 10% FBS) for 24 h. The cells were then treated with 2.5 μM of gambogic acid and further incubated under normal growth conditions for 2 or 6 h. Morphological changes were documented by photographing the cells under phase contrast illumination.

T47D breast cancer cells = test: Nuclear fragmentation in T47D breast cancer cells (Syto16 stain); assay type: cell-based, human; conditions: 10 μM, 24 h (FIG. 2B)
Procedure: T47D cells were grown and plated as described in Example 90. The cells were treated with 10 μM of gambogic acid and the plate was incubated for up to 24 h at 37° C. in a 5% CO2-95% humidity incubator. At 24 h, the cells were incubated with a live cell nucleic acid stain, Syto16 (Molecular Probes) which stains DNA. After 2 washes with PBS, cells were examined under a fluorescence microscope. […] Nuclear fragmentation is a clear indicator of cellular apoptosis.

[5] = tested on: poly(ADP)ribose polymerase (PARP) cleavage, Jurkat cells; test: PARP cleavage western blot, Jurkat cells; assay type: cell-based, human; conditions: 2.5 μM, 2 h (FIG. 5A)
Procedure: (§8) Cleavage of the enzyme poly(ADP)ribose polymerase (PARP) by caspase-3 and related proteases is considered to be one of the molecular hallmarks of caspase-mediated apoptosis. Therefore, the ability of gambogic acid to induce PARP cleavage in four different human tumor cell lines (Jurkat cells, HL-60 cells, T47D cells and PC3 cells) was determined.
(§9) Cells were cultured in complete growth medium containing 10% FBS and treated with gambogic acid at concentrations of 2.5 μM or 5 μM for 2 to 4 h. Control cultures were treated with a drug vehicle (DMSO), or the well-characterized apoptosis inducer, staurosporine. At the end of the apoptosis induction period, the cells were harvested, washed once with PBS, quick-frozen on dry ice, and stored at −80° C. The cells were then lysed in a standard immunoblotting lysis buffer and samples of the lysates were electrophoresed on 4% to 20% gradient polyacrylamide gels. The proteins in the gels were then transferred to PVDF membranes and probed with a commercially-available rabbit polyclonal antibody to PARP.

[6] = tested on: poly(ADP)ribose polymerase (PARP) cleavage, HL-60 cells; test: PARP cleavage western blot, HL-60 cells; assay type: cell-based, human; conditions: 2.5 μM, 2 h (FIG. 5B)
Procedure: as §8, §9

[7] = tested on: poly(ADP)ribose polymerase (PARP) cleavage, PC3 cells; test: PARP cleavage western blot, PC3 cells; assay type: cell-based, human; conditions: 5 μM, 4 h (FIG. 5D)
Procedure: as §8, §9

KB cell line = conditions: reported by Lin et al., Magn. Reson. Chem. 31:340-347 (1993); cited from earlier work
[8] = read-out: GI50 (dose for 50% inhibition of cell proliferation)
[9] = read-out: LC50 (dose for 50% cell death)

In the case of `CC(C)=CCC[C@]1(C)C=Cc2c(O)c3c(c(CC=C(C)C)c2O1)O[C@]12C(=C[C@@H]4C[C@H]1C(C)(C)O[C@@]2(C/C=C(/C)C(=O)O)C4=O)C3=O` [Example 1, Gambogic Acid], the GI50 (ZR-75-1 cells) is reported as 400 nM, the GI50 [1] is reported as 800 nM and the GI50 (HL-60 cells; [8]) is reported as 500 nM. The CC50 (HL-60 cells; [9]) was 700 nM, the GI50 (MRC-5 cells; [8]) was 400 nM and the CC50 (MRC-5 cells; [9]) was 500 nM. For the same molecule, the “Inhibition of caspase activity by Inhibitor” value (“Inhibition of caspase activity” below) ([2]; 10 μM gambogic acid with 10 μM caspase inhibitor cbz-Val-Asp-fmk) was “+”, the Caspase activity ([2]; 10 μM gambogic acid, up to 24 h) was “+ (Gambogic acid induced caspase activity in a ratio of greater than 2.5 (+) above untreated cell levels)” and the “Inhibition of caspase activity” value ([3]; SHP-77, 10 μM gambogic acid with 10 μM caspase inhibitor cbz-Val-Asp-fmk) was “+”. For the same molecule, the Caspase activity ([3]; SHP-77, 10 μM gambogic acid, up to 24 h) was “+ (Gambogic acid induced caspase activity in a ratio of greater than 2.5 (+) above untreated cell levels)”, the “Inhibition of caspase activity” value ([4]; A-549, 10 μM gambogic acid with 10 μM caspase inhibitor cbz-Val-Asp-fmk) was “+” and the Caspase activity ([4]; A-549, 10 μM gambogic acid, up to 24 h) was “+ (Gambogic acid induced caspase activity in a ratio of greater than 2.5 (+) above untreated cell levels)”. The “Morphological change of T47D cells” value (T47D cells; 2 h (FIG. 1B)) was “many of the cells have taken on a rounded, phase-bright morphology”, the “Morphological change of T47D cells” value (T47D cells; 6 h (FIG. 1C)) was “most of the cells in the culture are rounded up and are beginning to detach from the dish” and the “Nuclear fragmentation (Syto16 nuclear staining)” value (T47D breast cancer cells) was “condensed and fragmented nuclei in a large population of the cells”. For the same molecule, the PARP cleavage [5] was “almost complete PARP cleavage”, the PARP cleavage [6] was “almost complete PARP cleavage” and the PARP cleavage [7] was “a moderate amount of PARP cleavage product”. The “Cytotoxicity against KB cell line” value (KB cell line) was “cytotoxic”.
